Source: EP4745135A1 (Gluetacs Therapeutics (Shanghai) Co., Ltd., priority 2023, dated 2025)

Columns and labels:
GSPT1 = assay: Western blot, degradation of substrate protein in hPBMCs; type: cell-based, Human; conditions: 24 hours treatment, compounds at 50 nM and 500 nM (concentration behind the class not stated)
CK1α = biological target: T1, CK1α (Homo sapiens, UniProt P48729+Q96SW2); assay: as above; type: cell-based; conditions: 24 hours treatment, compounds at 50 nM and 500 nM (concentration behind the class not stated)
T1 construct: effects of the compounds of the present disclosure on the expression of target proteins in cells; endogenous in cells; host or cells: human PBMCs (Milecell Biotechnologies)
T1 sequence (P48729 whole entry): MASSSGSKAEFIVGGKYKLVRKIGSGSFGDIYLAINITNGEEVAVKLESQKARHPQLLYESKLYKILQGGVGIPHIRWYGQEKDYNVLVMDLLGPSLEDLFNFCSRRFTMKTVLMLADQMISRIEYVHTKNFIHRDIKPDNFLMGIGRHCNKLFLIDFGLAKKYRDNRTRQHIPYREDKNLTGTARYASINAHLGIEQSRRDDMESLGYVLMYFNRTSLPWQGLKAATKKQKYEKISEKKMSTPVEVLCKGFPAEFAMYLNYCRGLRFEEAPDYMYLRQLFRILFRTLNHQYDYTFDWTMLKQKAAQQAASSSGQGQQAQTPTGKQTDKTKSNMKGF
T1 sequence (Q96SW2 whole entry): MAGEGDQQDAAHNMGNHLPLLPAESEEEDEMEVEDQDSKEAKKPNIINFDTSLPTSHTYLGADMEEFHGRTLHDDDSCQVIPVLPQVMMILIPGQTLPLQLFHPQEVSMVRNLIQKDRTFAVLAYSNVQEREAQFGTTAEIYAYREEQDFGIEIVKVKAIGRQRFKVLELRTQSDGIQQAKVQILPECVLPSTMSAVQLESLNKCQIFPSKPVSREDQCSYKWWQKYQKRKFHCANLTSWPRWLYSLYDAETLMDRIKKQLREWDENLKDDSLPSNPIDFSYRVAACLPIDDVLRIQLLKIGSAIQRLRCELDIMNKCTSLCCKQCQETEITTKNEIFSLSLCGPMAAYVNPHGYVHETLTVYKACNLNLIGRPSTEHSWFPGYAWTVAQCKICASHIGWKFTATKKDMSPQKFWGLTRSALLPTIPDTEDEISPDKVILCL
T1 sequence (Q16531 whole entry partner): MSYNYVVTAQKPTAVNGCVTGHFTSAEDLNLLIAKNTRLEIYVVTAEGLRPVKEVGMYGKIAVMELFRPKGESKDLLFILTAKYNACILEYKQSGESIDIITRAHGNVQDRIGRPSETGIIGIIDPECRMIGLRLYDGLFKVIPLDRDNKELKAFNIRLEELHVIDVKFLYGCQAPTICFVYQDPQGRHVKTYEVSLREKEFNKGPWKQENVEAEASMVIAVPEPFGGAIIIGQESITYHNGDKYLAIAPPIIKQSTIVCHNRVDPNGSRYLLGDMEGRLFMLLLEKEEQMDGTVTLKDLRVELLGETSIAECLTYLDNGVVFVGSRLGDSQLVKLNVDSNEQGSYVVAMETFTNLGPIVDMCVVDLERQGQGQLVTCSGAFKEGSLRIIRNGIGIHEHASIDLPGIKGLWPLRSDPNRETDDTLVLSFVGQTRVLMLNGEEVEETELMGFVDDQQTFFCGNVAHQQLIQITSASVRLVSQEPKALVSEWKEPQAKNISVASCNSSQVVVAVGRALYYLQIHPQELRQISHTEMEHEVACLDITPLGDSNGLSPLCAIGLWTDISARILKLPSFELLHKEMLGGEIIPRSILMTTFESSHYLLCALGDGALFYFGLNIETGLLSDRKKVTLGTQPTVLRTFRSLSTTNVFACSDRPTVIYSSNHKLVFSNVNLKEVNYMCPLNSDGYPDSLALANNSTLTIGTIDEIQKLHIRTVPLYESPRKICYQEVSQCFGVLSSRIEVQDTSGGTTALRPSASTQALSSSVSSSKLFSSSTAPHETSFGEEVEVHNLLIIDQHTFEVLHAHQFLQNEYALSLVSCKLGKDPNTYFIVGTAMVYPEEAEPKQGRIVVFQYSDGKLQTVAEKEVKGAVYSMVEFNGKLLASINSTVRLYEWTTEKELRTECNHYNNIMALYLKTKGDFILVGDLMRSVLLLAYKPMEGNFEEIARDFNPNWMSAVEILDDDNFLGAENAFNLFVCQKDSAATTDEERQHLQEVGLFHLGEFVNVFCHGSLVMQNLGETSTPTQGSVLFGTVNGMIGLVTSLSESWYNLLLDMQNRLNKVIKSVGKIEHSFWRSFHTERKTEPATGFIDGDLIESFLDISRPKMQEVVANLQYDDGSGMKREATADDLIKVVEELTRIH

IKZF1 = biological target: T2, IKZF1 (Homo sapiens, UniProt Q13422+Q96SW2); assay: as above; type: cell-based; conditions: 24 hours treatment, compounds at 50 nM and 500 nM (concentration behind the class not stated)
T2 construct: effects of the compounds of the present disclosure on the expression of target proteins in cells; endogenous in cells; host or cells: human PBMCs (Milecell Biotechnologies)
T2 sequence (Q13422 whole entry): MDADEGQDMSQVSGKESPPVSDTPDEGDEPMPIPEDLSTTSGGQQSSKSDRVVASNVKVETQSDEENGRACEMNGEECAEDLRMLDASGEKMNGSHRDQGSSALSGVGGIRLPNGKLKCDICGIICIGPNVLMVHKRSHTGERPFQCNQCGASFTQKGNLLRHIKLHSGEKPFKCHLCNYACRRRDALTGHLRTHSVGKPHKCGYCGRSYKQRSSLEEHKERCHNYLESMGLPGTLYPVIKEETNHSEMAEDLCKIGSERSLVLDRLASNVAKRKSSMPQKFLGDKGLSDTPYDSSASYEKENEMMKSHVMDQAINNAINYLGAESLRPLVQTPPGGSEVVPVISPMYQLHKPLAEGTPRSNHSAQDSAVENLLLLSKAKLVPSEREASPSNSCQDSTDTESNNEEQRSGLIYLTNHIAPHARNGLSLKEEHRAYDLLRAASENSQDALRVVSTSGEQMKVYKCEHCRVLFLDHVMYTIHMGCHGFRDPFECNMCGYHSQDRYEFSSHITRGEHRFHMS
T2 sequence (Q96SW2 whole entry): as the sequence (Q96SW2 whole entry) above
T2 sequence (Q16531 whole entry partner): as the sequence (Q16531 whole entry partner) above

IKZF2 = biological target: T3, IKZF2 (Homo sapiens, UniProt Q96SW2+Q9UKS7); assay: as above; type: cell-based; conditions: 24 hours treatment, compounds at 50 nM and 500 nM (concentration behind the class not stated)
T3 construct: effects of the compounds of the present disclosure on the expression of target proteins in cells; endogenous in cells; host or cells: human PBMCs (Milecell Biotechnologies)
T3 sequence (Q9UKS7 whole entry): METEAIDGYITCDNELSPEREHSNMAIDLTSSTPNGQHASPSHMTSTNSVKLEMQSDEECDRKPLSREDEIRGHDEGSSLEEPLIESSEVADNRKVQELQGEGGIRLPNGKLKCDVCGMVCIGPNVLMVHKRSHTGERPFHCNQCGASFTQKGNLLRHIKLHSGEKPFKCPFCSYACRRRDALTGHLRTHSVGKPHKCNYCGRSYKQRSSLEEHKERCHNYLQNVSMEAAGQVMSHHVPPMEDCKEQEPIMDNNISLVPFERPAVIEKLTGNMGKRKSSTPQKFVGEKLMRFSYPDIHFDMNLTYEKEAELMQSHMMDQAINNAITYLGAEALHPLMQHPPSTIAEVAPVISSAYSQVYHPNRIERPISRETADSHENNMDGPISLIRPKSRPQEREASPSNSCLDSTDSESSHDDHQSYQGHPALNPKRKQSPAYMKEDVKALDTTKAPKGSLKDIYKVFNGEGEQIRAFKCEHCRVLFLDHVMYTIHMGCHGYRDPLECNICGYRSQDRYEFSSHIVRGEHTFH
T3 sequence (Q96SW2 whole entry): as the sequence (Q96SW2 whole entry) above
T3 sequence (Q16531 whole entry partner): as the sequence (Q16531 whole entry partner) above

IKZF3 = biological target: T4, IKZF3 (Homo sapiens, UniProt Q96SW2+Q9UKT9); assay: as above; type: cell-based; conditions: 24 hours treatment, compounds at 50 nM and 500 nM (concentration behind the class not stated)
T4 construct: effects of the compounds of the present disclosure on the expression of target proteins in cells; endogenous in cells; host or cells: human PBMCs (Milecell Biotechnologies)
T4 sequence (Q9UKT9 whole entry): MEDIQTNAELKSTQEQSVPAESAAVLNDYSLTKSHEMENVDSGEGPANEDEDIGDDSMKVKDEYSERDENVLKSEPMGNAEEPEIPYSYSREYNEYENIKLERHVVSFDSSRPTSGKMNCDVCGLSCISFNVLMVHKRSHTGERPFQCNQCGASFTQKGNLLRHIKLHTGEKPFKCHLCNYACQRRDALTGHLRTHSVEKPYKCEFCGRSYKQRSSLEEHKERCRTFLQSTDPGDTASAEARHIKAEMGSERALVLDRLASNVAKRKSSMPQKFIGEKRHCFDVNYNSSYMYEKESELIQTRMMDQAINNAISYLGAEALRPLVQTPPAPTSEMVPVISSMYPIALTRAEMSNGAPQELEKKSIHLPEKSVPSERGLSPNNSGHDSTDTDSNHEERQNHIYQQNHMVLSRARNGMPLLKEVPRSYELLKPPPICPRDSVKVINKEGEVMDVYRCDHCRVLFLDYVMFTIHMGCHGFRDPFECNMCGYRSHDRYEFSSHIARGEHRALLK
T4 sequence (Q96SW2 whole entry): as the sequence (Q96SW2 whole entry) above
T4 sequence (Q16531 whole entry partner): as the sequence (Q16531 whole entry partner) above

WEE1 = biological target: T5, WEE1 (Homo sapiens, UniProt P30291+Q96SW2); assay: as above; type: cell-based; conditions: 24 hours treatment, compounds at 50 nM and 500 nM (concentration behind the class not stated)
T5 construct: effects of the compounds of the present disclosure on the expression of target proteins in cells; endogenous in cells; host or cells: human PBMCs (Milecell Biotechnologies)
T5 sequence (P30291 whole entry): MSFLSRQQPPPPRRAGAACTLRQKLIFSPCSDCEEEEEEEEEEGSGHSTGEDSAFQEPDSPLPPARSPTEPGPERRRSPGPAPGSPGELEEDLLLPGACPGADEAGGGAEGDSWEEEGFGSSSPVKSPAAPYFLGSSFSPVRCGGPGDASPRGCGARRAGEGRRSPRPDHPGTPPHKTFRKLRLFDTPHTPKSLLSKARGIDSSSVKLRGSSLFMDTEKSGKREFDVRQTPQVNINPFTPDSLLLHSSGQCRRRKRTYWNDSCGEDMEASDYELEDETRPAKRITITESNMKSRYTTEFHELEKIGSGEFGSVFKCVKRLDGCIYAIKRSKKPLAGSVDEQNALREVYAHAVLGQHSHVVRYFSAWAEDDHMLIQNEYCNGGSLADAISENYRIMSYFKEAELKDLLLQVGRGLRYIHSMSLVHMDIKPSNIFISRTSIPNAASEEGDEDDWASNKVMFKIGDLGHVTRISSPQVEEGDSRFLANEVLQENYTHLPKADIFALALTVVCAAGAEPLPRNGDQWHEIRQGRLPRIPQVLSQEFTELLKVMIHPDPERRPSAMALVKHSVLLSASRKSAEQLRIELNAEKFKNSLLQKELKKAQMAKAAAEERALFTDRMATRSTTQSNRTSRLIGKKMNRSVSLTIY
T5 sequence (Q96SW2 whole entry): as the sequence (Q96SW2 whole entry) above
T5 sequence (Q16531 whole entry partner): as the sequence (Q16531 whole entry partner) above

[1] = biological target: T6, human Cereblon WT GST-tagged protein (Homo sapiens, UniProt Q96SW2); assay: CRBN-binding affinity, HTRF (CEREBLON BINDING kit); conditions: for inhibition at 0.5 µM: read-out: Inhibition Rate at 0.5 µM (%); for inhibition at 2 µM: read-out: Inhibition Rate at 2 µM (%)
T6 construct: purchased CISBIO 64BDCRBNPEH
T6 sequence (Q96SW2 whole entry): as the sequence (Q96SW2 whole entry) above

Structure (SMILES)	inhibition at 0.5 µM [1] [%]	inhibition at 2 µM [1] [%]	GSPT1 substrate protein remaining % (GSPT1)	CK1α substrate protein remaining % (CK1α)	IKZF 1 substrate protein remaining % (IKZF1)	IKZF2 substrate protein remaining % (IKZF2)	IKZF3 substrate protein remaining % (IKZF3)	Wee1 substrate protein remaining % (WEE1)
O=C1CCC(N2Cc3c(CN4CCN(c5ncc6ccsc6n5)CC4)cccc3C2=S)C(=O)N1 (centres unmarked) [GT-08927, 3-(4-((4-(thieno[2,3-d]pyrimidin-2-yl)piperazin-1-yl)methyl)-1-thioxoisoindolin-2-yl)piperidine-2,6-dione]	60 to 80	80 to 100	B (80%< substrate protein remaining %≤ 100%)	B (80%< substrate protein remaining %≤ 100%)	B (80%< substrate protein remaining %≤ 100%)	A (0% ≤ substrate protein remaining % ≤ 80%)	A (0% ≤ substrate protein remaining % ≤ 80%)	A (0% ≤ substrate protein remaining % ≤ 80%)
O=C1CCC(N2Cc3c(CN4CCC(c5ncnc6sc(-c7ccccc7)cc56)CC4)cccc3C2=S)C(=O)N1 (centres unmarked) [GT-08929, 3-(4-((4-(6-phenylthieno[2,3-d]pyrimidin-4-yl)piperidin-1-yl)methyl)-1-thioxoisoindolin-2-yl)piperidine-2,6-dione]	30 to 40	60 to 80	B (80%< substrate protein remaining %≤ 100%)	B (80%< substrate protein remaining %≤ 100%)	B (80%< substrate protein remaining %≤ 100%)	B (80%< substrate protein remaining %≤ 100%)	B (80%< substrate protein remaining %≤ 100%)	A (0% ≤ substrate protein remaining % ≤ 80%)
CC(C)c1cc2c(C3=CCN(Cc4cccc5c4CN(C4CCC(=O)NC4=O)C5=S)CC3)ncnc2s1 (centres unmarked) [GT-08954, 3-(4-((4-(6-isopropylthieno[2,3-d]pyrimidin-4-yl)-3,6-dihydropyridin-1(2H)-yl)methyl)-1-thioxoisoindolin-2-yl)piperidine-2,6-dione]	40 to 53	60 to 80	A (0% ≤ substrate protein remaining % ≤ 80%)	B (80%< substrate protein remaining %≤ 100%)	B (80%< substrate protein remaining %≤ 100%)	B (80%< substrate protein remaining %≤ 100%)	B (80%< substrate protein remaining %≤ 100%)	A (0% ≤ substrate protein remaining % ≤ 80%)
Cc1sc2ncnc(C3=CCN(Cc4cccc5c4CN(C4CCC(=O)NC4=O)C5=S)CC3)c2c1C (centres unmarked) [GT-08955, 3-(4-((4-(5,6-dimethylthieno[2,3-d]pyrimidin-4-yl)-3,6-dihydropyridin-1(2H)-yl)methyl)-1-thioxoisoindolin-2-yl)piperidine-2,6-dione]	40 to 53	60 to 80	B (80%< substrate protein remaining %≤ 100%)	B (80%< substrate protein remaining %≤ 100%)	B (80%< substrate protein remaining %≤ 100%)	B (80%< substrate protein remaining %≤ 100%)	B (80%< substrate protein remaining %≤ 100%)	A (0% ≤ substrate protein remaining % ≤ 80%)
O=C1CCC(N2Cc3c(CN4CC=C(c5ncnc6scc(-c7ccccc7)c56)CC4)cccc3C2=S)C(=O)N1 (centres unmarked) [GT-08957, 3-(4-((4-(5-phenylthieno[2,3-d]pyrimidin-4-yl)-3,6-dihydropyridin-1(2H)-yl)methyl)-1-thioxoisoindolin-2-yl)piperidine-2,6-dione]	60 to 80	80 to 100	B (80%< substrate protein remaining %≤ 100%)	B (80%< substrate protein remaining %≤ 100%)	B (80%< substrate protein remaining %≤ 100%)	B (80%< substrate protein remaining %≤ 100%)	B (80%< substrate protein remaining %≤ 100%)	A (0% ≤ substrate protein remaining % ≤ 80%)

Second part, led by results:

inhibition at 0.5 µM [1] [%]	inhibition at 2 µM [1] [%]	Structure (SMILES)	GSPT1 substrate protein remaining % (GSPT1)	CK1α substrate protein remaining % (CK1α)	IKZF 1 substrate protein remaining % (IKZF1)	IKZF2 substrate protein remaining % (IKZF2)	IKZF3 substrate protein remaining % (IKZF3)	Wee1 substrate protein remaining % (WEE1)
53 to 60	80 to 100	O=C1CCC(N2Cc3c(CN4CCC(c5ncnc6scc(-c7ccccc7)c56)CC4)cccc3C2=S)C(=O)N1 (centres unmarked) [GT-08930, 3-(4-((4-(5-phenylthieno[2,3-d]pyrimidin-4-yl)piperidin-1-yl)methyl)-1-thioxoisoindolin-2-yl)piperidine-2,6-dione]	B (80%< substrate protein remaining %≤ 100%)	B (80%< substrate protein remaining %≤ 100%)	B (80%< substrate protein remaining %≤ 100%)	B (80%< substrate protein remaining %≤ 100%)	B (80%< substrate protein remaining %≤ 100%)	A (0% ≤ substrate protein remaining % ≤ 80%)
60 to 80	80 to 100	Cc1nc(C2CCN(Cc3cccc4c3CN(C3CCC(=O)NC3=O)C4=S)CC2)c2ccsc2n1 (centres unmarked) [GT-08932, 3-(4-((4-(2-methylthieno[2,3-d]pyrimidin-4-yl)piperidin-1-yl)methyl)-1-thioxoisoindolin-2-yl)piperidine-2,6-dione]	B (80%< substrate protein remaining %≤ 100%)	B (80%< substrate protein remaining %≤ 100%)	B (80%< substrate protein remaining %≤ 100%)	B (80%< substrate protein remaining %≤ 100%)	B (80%< substrate protein remaining %≤ 100%)	A (0% ≤ substrate protein remaining % ≤ 80%)
53 to 60	60 to 80	Cc1nc(C2CCN(Cc3cccc4c3CN(C3CCC(=O)NC3=O)C4=S)CC2)c2c3c(sc2n1)CCCC3 (centres unmarked) [GT-08933, 3-(4-((4-(2-methyl-5,6,7,8-tetrahydrobenzo[4,5]thieno[2,3-d]pyrimidin-4-yl)piperidin-1-yl)methyl)-1-thioxoisoindolin-2-yl)piperidine-2,6-dione]	A (0% ≤ substrate protein remaining % ≤ 80%)	B (80%< substrate protein remaining %≤ 100%)	A (0% ≤ substrate protein remaining % ≤ 80%)	B (80%< substrate protein remaining %≤ 100%)	B (80%< substrate protein remaining %≤ 100%)	A (0% ≤ substrate protein remaining % ≤ 80%)
60 to 80	80 to 100	Cc1nc(C2CCN(Cc3cccc4c3CN(C3CCC(=O)NC3=O)C4=S)CC2)c2c3c(sc2n1)CCC3 (centres unmarked) [GT-08935, 3-(4-((4-(2-methyl-6,7-dihydro-5H-cyclopenta[4,5]thieno[2,3-d]pyrimidin-4-yl)piperidin-1-yl)methyl)-1-thioxoisoindolin-2-yl)piperidine-2,6-dione]	A (0% ≤ substrate protein remaining % ≤ 80%)	B (80%< substrate protein remaining %≤ 100%)	A (0% ≤ substrate protein remaining % ≤ 80%)	B (80%< substrate protein remaining %≤ 100%)	A (0% ≤ substrate protein remaining % ≤ 80%)	A (0% ≤ substrate protein remaining % ≤ 80%)
60 to 80	80 to 100	O=C1CCC(N2Cc3c(CN4CCC(c5ncc6ccsc6n5)CC4)cccc3C2=S)C(=O)N1 (centres unmarked) [GT-08936, 3-(4-((4-(thieno[2,3-d]pyrimidin-2-yl)piperidin-1-yl)methyl)-1-thioxoisoindolin-2-yl)piperidine-2,6-dione]	A (0% ≤ substrate protein remaining % ≤ 80%)	B (80%< substrate protein remaining %≤ 100%)	A (0% ≤ substrate protein remaining % ≤ 80%)	B (80%< substrate protein remaining %≤ 100%)	B (80%< substrate protein remaining %≤ 100%)	A (0% ≤ substrate protein remaining % ≤ 80%)
